Results as given in patent US8604194B2, “Salts of O-desmethyl-venlafaxine” (Lek Pharmaceuticals D.D., priority 2008, dated 2013).

Assay: Solubility of desvenlafaxine salts in water at 23° C.
Details: for Solubility of desvenlafaxine salts in water: 23° C.

Compound	Solubility of desvenlafaxine salts in water	solubility in water (result in words) (refers to Table 1)
CN(C)CC(c1ccc(O)cc1)C1(O)CCCCC1.O=C(O)C1OC(O)C(O)C(O)C1O [glucuronate amorphous, desvenlafaxine D-glucuronate]	338 mg/mL	
CN(C)CC(c1ccc(O)cc1)C1(O)CCCCC1.O=C[C@H](O)[C@@H](O)[C@H](O)[C@H](O)C(=O)O (stereo not drawn) [O-desmethyl-venlafaxine glucuronate]		good solubility in water
CN(C)CC(c1ccc(O)cc1)C1(O)CCCCC1.O.O=C(O)C1OC(O)C(O)C(O)C1O [glucuronate crystalline, desvenlafaxine D-glucuronate monohydrate]	299 mg/mL	
